Key:
[1] = target: intracellular GCN2 (phosphorylation of the GCN2 substrate eIF2α) (Homo sapiens, UniProt Q9P2K8); experiment: GCN2 cellular inhibition assay (AlphaScreen SureFire P-eIF2α Ser51, borrelidin-treated U2OS cells); assay type: cell-based; details: compounds of Formula IV; biomarker assay, phosphorylated eIF2α Ser51 in borrelidin-treated U2OS cells
Method in brief: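 Compound effect on GCN2 is gauged by eIF2α Ser51 phosphorylation in borrelidin-challenged U2OS cells (10 μM, 1 h). Top compound level is 40 μM final.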

[2] = target: GCN2 kinase (Homo sapiens, UniProt Q9P2K8); experiment: GCN2 enzyme inhibition assay (Transcreener ADP2 fluorescence polarization); assay type: biochemical; details: Enzyme activity for compounds of Formula IV; Ki(app), 280 μM ATP, 25° C.
Method in brief: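 FP detection of ADP (antibody plus Alexa633 tracer) after a 1 h, 25 °C kinase reaction. Enzyme 4 nM, ATP 280 μM, (RS)7 peptide 200 μM, Tris pH 7.5 buffer with MgCl2 and DTT. Percent inhibition fitted by non-linear tight-binding algorithm for IC50 and Ki(app).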

Sequence of GCN2 kinase (Q9P2K8 whole entry): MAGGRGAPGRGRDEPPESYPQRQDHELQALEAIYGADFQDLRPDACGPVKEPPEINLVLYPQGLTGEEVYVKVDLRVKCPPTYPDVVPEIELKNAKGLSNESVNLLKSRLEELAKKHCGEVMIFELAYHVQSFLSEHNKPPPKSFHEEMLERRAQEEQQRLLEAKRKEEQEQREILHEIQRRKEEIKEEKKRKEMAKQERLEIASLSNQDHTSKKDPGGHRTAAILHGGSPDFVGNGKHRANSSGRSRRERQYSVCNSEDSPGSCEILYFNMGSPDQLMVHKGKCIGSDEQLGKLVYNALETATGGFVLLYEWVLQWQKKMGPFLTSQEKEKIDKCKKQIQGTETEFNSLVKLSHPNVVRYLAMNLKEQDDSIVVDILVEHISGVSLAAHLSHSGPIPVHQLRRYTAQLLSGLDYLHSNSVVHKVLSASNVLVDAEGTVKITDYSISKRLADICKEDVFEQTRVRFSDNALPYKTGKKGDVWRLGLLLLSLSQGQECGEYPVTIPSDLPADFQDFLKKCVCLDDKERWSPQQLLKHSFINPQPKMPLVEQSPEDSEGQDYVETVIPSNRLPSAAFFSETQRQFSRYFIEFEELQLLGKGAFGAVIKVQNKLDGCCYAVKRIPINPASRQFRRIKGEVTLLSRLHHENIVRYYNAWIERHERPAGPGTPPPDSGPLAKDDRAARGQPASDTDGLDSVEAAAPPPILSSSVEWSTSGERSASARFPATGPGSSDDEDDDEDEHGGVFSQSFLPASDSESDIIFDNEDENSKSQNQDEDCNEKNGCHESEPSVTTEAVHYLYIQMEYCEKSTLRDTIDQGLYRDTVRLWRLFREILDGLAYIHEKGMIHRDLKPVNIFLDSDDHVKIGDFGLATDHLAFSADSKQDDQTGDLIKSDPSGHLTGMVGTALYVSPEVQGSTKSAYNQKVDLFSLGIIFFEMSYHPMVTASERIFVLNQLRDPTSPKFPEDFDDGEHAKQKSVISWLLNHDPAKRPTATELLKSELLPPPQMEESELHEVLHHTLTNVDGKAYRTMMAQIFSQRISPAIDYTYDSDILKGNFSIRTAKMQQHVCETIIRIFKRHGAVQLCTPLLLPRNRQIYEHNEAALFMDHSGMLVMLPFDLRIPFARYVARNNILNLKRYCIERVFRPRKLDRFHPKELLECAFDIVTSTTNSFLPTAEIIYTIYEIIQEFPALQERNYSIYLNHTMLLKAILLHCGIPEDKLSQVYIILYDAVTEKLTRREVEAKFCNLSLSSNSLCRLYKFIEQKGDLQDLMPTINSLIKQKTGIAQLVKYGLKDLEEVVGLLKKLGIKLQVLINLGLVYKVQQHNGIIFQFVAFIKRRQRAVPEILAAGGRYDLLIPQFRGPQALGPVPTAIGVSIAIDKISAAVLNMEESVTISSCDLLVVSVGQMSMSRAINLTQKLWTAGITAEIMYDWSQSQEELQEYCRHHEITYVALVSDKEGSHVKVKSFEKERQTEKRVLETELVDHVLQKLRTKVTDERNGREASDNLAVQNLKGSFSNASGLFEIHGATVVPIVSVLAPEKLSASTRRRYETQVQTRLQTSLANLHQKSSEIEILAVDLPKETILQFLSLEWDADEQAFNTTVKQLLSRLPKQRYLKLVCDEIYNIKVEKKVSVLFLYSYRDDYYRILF
Sequence of intracellular GCN2 (phosphorylation of the GCN2 substrate eIF2α) (Q9P2K8 whole entry): as above

Row | IC50 [1] | Ki [2] | SMILES
1 | 500 to 5000 nM | < 10 nM | Cc1nc(C2CCCN(c3ccnc(-c4cnc5cnc(Br)cn45)n3)C2)c[nH]1 (stereo not drawn) [IV-355, 6-Bromo-3-(4-(3-(2-methyl-1H-imidazol-4-yl)piperidin-1-yl)pyrimidin-2-yl)imidazo[1,2-a]pyrazine]
2 | < 500 nM | < 10 nM | OCC1CC(c2cn[nH]c2)CN(c2ccnc(-c3cnc4cnc(C(F)(F)F)cn34)n2)C1 (stereo not drawn) [IV-359, (5-(1H-Pyrazol-4-yl)-1-(2-(6-(trifluoromethyl)imidazo[1,2-a]pyrazin-3-yl)pyrimidin-4-yl)piperidin-3-yl)methanol]
3 | < 500 nM | < 10 nM | Brc1cn2c(-c3nccc(N4CCCC(c5c[nH]cn5)C4)n3)cnc2cn1 (stereo not drawn) [IV-363, 3-(4-(3-(1H-Imidazol-4-yl)piperidin-1-yl)pyrimidin-2-yl)-6-bromoimidazo[1,2-a]pyrazine]
4 | 500 to 5000 nM | 10 to 100 nM | Brc1cn2c(-c3nccc(N4CCNC(c5cn[nH]c5)C4)n3)cnc2cn1 (stereo not drawn) [IV-371, 3-(4-(3-(1H-Pyrazol-4-yl)piperazin-1-yl)pyrimidin-2-yl)-6-bromoimidazo[1,2-a]pyrazine]
5 | 500 to 5000 nM | < 10 nM | CC1CN(c2ccnc(-c3cnc4cnc(Br)cn34)n2)C(C)C(c2c[nH]cn2)N1 (stereo not drawn) [IV-373, 3-(4-(3-(1H-Imidazol-4-yl)-2,5-dimethylpiperazin-1-yl)pyrimidin-2-yl)-6-bromoimidazo[1,2-a]pyrazine]
6 | < 500 nM | < 10 nM | FC(F)(F)c1cn2c(-c3nccc(N4CCCC(c5cn[nH]n5)C4)n3)cnc2cn1 (stereo not drawn) [IV-378, 3-(4-(3-(2H-1,2,3-Triazol-4-yl)piperidin-1-yl)pyrimidin-2-yl)-6-(trifluoromethyl)imidazo[1,2-a]pyrazine]
7 | 500 to 5000 nM | 10 to 100 nM | CC(C)c1nc(C2CCCN(c3ccnc(-c4cnc5cnc(Br)cn45)n3)C2)c[nH]1 (stereo not drawn) [IV-384, 6-Bromo-3-(4-(3-(2-isopropyl-1H-imidazol-4-yl)piperidin-1-yl)pyrimidin-2-yl)imidazo[1,2-a]pyrazine]
8 | 500 to 5000 nM | 10 to 100 nM | CC(C)c1nc(C2=CCCN(c3ccnc(-c4cnc5cnc(Br)cn45)n3)C2)c[nH]1 [IV-385, 6-Bromo-3-(4-(5-(2-isopropyl-1H-imidazol-4-yl)-3,6-dihydropyridin-1(2H)-yl)pyrimidin-2-yl)imidazo[1,2-a]pyrazine]
9 | 500 to 5000 nM | 10 to 100 nM | OC1(c2cn[nH]c2)CCCN(c2ccnc(-c3cnc4cnc(C(F)(F)F)cn34)n2)C1 (stereo not drawn) [IV-386, 3-(1H-Pyrazol-4-yl)-1-(2-(6-(trifluoromethyl)imidazo[1,2-a]pyrazin-3-yl)pyrimidin-4-yl)piperidin-3-ol]
10 | < 500 nM | < 10 nM | CC1C(c2cn[nH]c2)CCCN1c1ccnc(-c2cnc3cnc(C(F)(F)F)cn23)n1 (stereo not drawn) [IV-388, 3-(4-(2-Methyl-3-(1H-pyrazol-4-yl)piperidin-1-yl)pyrimidin-2-yl)-6-(trifluoromethyl)imidazo[1,2-a]pyrazine]
11 | 500 to 5000 nM | < 10 nM | CC1C(c2c[nH]cn2)CCCN1c1ccnc(-c2cnc3cnc(C(F)(F)F)cn23)n1 (stereo not drawn) [IV-389, 3-(4-(3-(1H-Imidazol-4-yl)-2-methylpiperidin-1-yl)pyrimidin-2-yl)-6-(trifluoromethyl)imidazo[1,2-a]pyrazine]
12 | 500 to 5000 nM | < 10 nM | COC1CC(c2cn[nH]c2)CN(c2ccnc(-c3cnc4cnc(C(F)(F)F)cn34)n2)C1 (stereo not drawn) [IV-396, 3-(4-(3-Methoxy-5-(1H-pyrazol-4-yl)piperidin-1-yl)pyrimidin-2-yl)-6-(trifluoromethyl)imidazo[1,2-a]pyrazine]
13 | > 5000 nM | 100 to 1000 nM | CC1C(c2cn[nH]c2)NCCN1c1ccnc(-c2cnc3cnccn23)n1 (stereo not drawn) [IV-397, 3-(4-(2-Methyl-3-(1H-pyrazol-4-yl)piperazin-1-yl)pyrimidin-2-yl)imidazo[1,2-a]pyrazine]
14 | > 5000 nM | 10 to 100 nM | Cc1cn2c(-c3nccc(N4CCNC(c5cn[nH]c5)C4C)n3)cnc2cn1 (stereo not drawn) [IV-398, 6-Methyl-3-(4-(2-methyl-3-(1H-pyrazol-4-yl)piperazin-1-yl)pyrimidin-2-yl)imidazo[1,2-a]pyrazine]
15 | 500 to 5000 nM | < 10 nM | FC(F)(F)c1cn2c(-c3nccc(N4CCCC(c5c[nH]c(Cl)n5)C4)n3)cnc2cn1 (stereo not drawn) [IV-409, 3-(4-(3-(2-Chloro-1H-imidazol-4-yl)piperidin-1-yl)pyrimidin-2-yl)-6-(trifluoromethyl)imidazo[1,2-a]pyrazine]
16 | > 5000 nM | 10 to 100 nM | O=C1CN(c2ccnc(-c3cnc4cnc(C(F)(F)F)cn34)n2)CC(c2cn[nH]c2)N1 (stereo not drawn) [IV-410, 6-(1H-Pyrazol-4-yl)-4-(2-(6-(trifluoromethyl)imidazo[1,2-a]pyrazin-3-yl)pyrimidin-4-yl)piperazin-2-one]
17 | < 500 nM | < 10 nM | CC1CN(c2ccnc(-c3cnc4cnc(C(F)(F)F)cn34)n2)C(C)C(c2cn[nH]c2)O1 (stereo not drawn) [IV-415, 3,6-Dimethyl-2-(1H-pyrazol-4-yl)-4-(2-(6-(trifluoromethyl)imidazo[1,2-a]pyrazin-3-yl)pyrimidin-4-yl)morpholine]

Row | IC50 [1] | Ki [2] | SMILES
18 | 500 to 5000 nM | < 10 nM | CC1CN(c2ccnc(-c3cnc4cnc(C(F)(F)F)cn34)n2)C(C)C(c2cn[nH]c2)O1 (stereo not drawn) [IV-416, 3,6-Dimethyl-2-(1H-pyrazol-4-yl)-4-(2-(6-(trifluoromethyl)imidazo[1,2-a]pyrazin-3-yl)pyrimidin-4-yl)morpholine]
19 | 500 to 5000 nM | 10 to 100 nM | CC1C(c2cn[nH]c2)OCCN1c1nccc(-c2cnc3cnc(C(F)(F)F)cn23)n1 (stereo not drawn) [IV-418, 3-Methyl-2-(1H-pyrazol-4-yl)-4-(4-(6-(trifluoromethyl)imidazo[1,2-a]pyrazin-3-yl)pyrimidin-2-yl)morpholine]
20 | 500 to 5000 nM | 10 to 100 nM | CC1CN(c2ncc(F)c(-c3cnc4cnc(C(F)(F)F)cn34)n2)C(C)C(c2cn[nH]c2)N1 (stereo not drawn) [IV-421, 3-(2-(2,5-Dimethyl-3-(1H-pyrazol-4-yl)piperazin-1-yl)-5-fluoropyrimidin-4-yl)-6-(trifluoromethyl)imidazo[1,2-a]pyrazine]
21 | > 5000 nM | 100 to 1000 nM | CC1CN(c2ncc(F)c(-c3cnc4cnc(C(F)(F)F)cn34)n2)CC(c2cn[nH]c2)N1 (stereo not drawn) [IV-422, 3-(5-Fluoro-2-(3-methyl-5-(1H-pyrazol-4-yl)piperazin-1-yl)pyrimidin-4-yl)-6-(trifluoromethyl)imidazo[1,2-a]pyrazine]
22 | > 5000 nM | 100 to 1000 nM | FC(F)(F)c1cn2c(-c3nccc(N4CCCCC4)n3)cnc2cn1 [IV-423, 3-(4-(Piperidin-1-yl)pyrimidin-2-yl)-6-(trifluoromethyl)imidazo[1,2-a]pyrazine]
23 | > 5000 nM | 100 to 1000 nM | CC1CCCN(c2ccnc(-c3cnc4cnc(C(F)(F)F)cn34)n2)C1 (stereo not drawn) [IV-424, 3-(4-(3-Methylpiperidin-1-yl)pyrimidin-2-yl)-6-(trifluoromethyl)imidazo[1,2-a]pyrazine]
24 | > 5000 nM | 100 to 1000 nM | NC(=O)C1COCCN(c2ccnc(-c3cnc4cnc(C(F)(F)F)cn34)n2)C1 (stereo not drawn) [IV-425, 4-(2-(6-(Trifluoromethyl)imidazo[1,2-a]pyrazin-3-yl)pyrimidin-4-yl)-1,4-oxazepane-6-carboxamide]
25 | > 5000 nM | 100 to 1000 nM | FC(F)(F)c1cn2c(-c3nccc(N4CCOCC4)n3)cnc2cn1 [IV-426, 4-(2-(6-(Trifluoromethyl)imidazo[1,2-a]pyrazin-3-yl)pyrimidin-4-yl)morpholine]
26 | > 5000 nM | 100 to 1000 nM | FC(F)(F)c1cn2c(-c3nccc(N4CCCOCC4)n3)cnc2cn1 [IV-427, 4-(2-(6-(Trifluoromethyl)imidazo[1,2-a]pyrazin-3-yl)pyrimidin-4-yl)-1,4-oxazepane]
27 | 500 to 5000 nM | 100 to 1000 nM | OCCC1CCN(c2ccnc(-c3cnc4cnc(C(F)(F)F)cn34)n2)C1 (stereo not drawn) [IV-435, 2-(1-(2-(6-(Trifluoromethyl)imidazo[1,2-a]pyrazin-3-yl)pyrimidin-4-yl)pyrrolidin-3-yl)ethan-1-ol]
28 | > 5000 nM | 100 to 1000 nM | OCC1CCCN1c1ccnc(-c2cnc3cnc(C(F)(F)F)cn23)n1 (stereo not drawn) [IV-436, (1-(2-(6-(Trifluoromethyl)imidazo[1,2-a]pyrazin-3-yl)pyrimidin-4-yl)pyrrolidin-2-yl)methanol]
29 | > 5000 nM | 100 to 1000 nM | OC1CCCN(c2ccnc(-c3cnc4cnc(C(F)(F)F)cn34)n2)C1 (stereo not drawn) [IV-437, 1-(2-(6-(Trifluoromethyl)imidazo[1,2-a]pyrazin-3-yl)pyrimidin-4-yl)piperidin-3-ol]
30 | > 5000 nM | 100 to 1000 nM | OCC1CCCN(c2ccnc(-c3cnc4cnc(C(F)(F)F)cn34)n2)C1 (stereo not drawn) [IV-439, (1-(2-(6-(Trifluoromethyl)imidazo[1,2-a]pyrazin-3-yl)pyrimidin-4-yl)piperidin-3-yl)methanol]
31 | > 5000 nM | 100 to 1000 nM | OCCC1CCN(c2ccnc(-c3cnc4cnc(C(F)(F)F)cn34)n2)CC1 [IV-442, 2-(1-(2-(6-(Trifluoromethyl)imidazo[1,2-a]pyrazin-3-yl)pyrimidin-4-yl)piperidin-4-yl)ethan-1-ol]
32 | > 5000 nM | 100 to 1000 nM | OCC1CCN(c2ccnc(-c3cnc4cnc(C(F)(F)F)cn34)n2)CC1 [IV-443, (1-(2-(6-(Trifluoromethyl)imidazo[1,2-a]pyrazin-3-yl)pyrimidin-4-yl)piperidin-4-yl)methanol]
33 | > 5000 nM | 100 to 1000 nM | OCCC1CCCN(c2ccnc(-c3cnc4cnc(C(F)(F)F)cn34)n2)C1 (stereo not drawn) [IV-444, 2-(1-(2-(6-(Trifluoromethyl)imidazo[1,2-a]pyrazin-3-yl)pyrimidin-4-yl)piperidin-3-yl)ethan-1-ol]

Source: US10988477B2 (Merck Patent GmbH, priority 2018, dated 2021)
